Target: T1, murine MGL (Mus musculus, UniProt O35678)
T1 construct: made in house; host or cells: E. coli, purified
T1 sequence (O35678 1-303): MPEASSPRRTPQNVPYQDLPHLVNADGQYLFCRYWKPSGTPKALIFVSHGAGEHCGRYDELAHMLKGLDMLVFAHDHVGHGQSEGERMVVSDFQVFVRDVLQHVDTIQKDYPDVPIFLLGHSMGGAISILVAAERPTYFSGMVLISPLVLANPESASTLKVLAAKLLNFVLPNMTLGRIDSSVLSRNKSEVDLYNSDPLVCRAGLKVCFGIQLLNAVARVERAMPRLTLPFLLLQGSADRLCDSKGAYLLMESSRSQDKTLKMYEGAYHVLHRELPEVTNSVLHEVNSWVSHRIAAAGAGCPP
Experiment: MG hydrolase activity, purified MGL, rac-1-(3)-oleoylglycerol substrate
Format: biochemical
Conditions: Fig. 2C
Experimental: • Figure 1. Structure of compounds 1 to 3 (reference) and compound 4 (atglistatin) and effect on ATGL activity. For determination of lipase activity, lysates of E. coli overexpressing recombinant strep-tagged ATGL and CGI-58 were incubated with a substrate containing radiolabeled [9,10-3H(N)]-triolein. Subsequently, FA were extracted and quantified by liquid scintillation counting. Lysates of cells expressing empty vector were set as blank. Inhibitors were solubilized in DMSO and added at the indicated concentrations. DMSO alone was used as negative control. (A) Structure and IC50 values of compounds 1-4. (B) Dose-dependent inhibition of ATGL in the presence of compound 3 and 4. […] (C) Lineweaver-Burk plots for kinetic analysis of ATGL inhibition. Experiments were performed at varying concentrations of substrate (0.05 - 3 mM) in presence and absence of compound 4 (Atglistatin). […] Lipase activity of ATGL, HSL, lipoprotein lipase, and pancreatic lipase was determined using triolein as substrate. MGL activity was detected in the presence of rac-(1,3)-monooleoylglycerol as substrate. […] The release of FA (A) and glycerol (B) in the media was determined using commercial kits. […] At the indicated timepoints blood was taken retroorbitally and plasma parameters were measured using commercial kits. […] 8 h after gavage blood was taken retroorbitally and plasma parameters were measured using commercial kits. […]

SMILES: CN(C)C(=O)Nc1cccc(-c2ccc(N(C)C)cc2)c1 [Atglistatin, atglistatin]
- effect on MGL activity: only minor effects
